Source: patent EP4653437A2 (Innovo Therapeutics Inc., priority 2023, dated 2024)

Target: T1, human 15-PGDH (Homo sapiens, UniProt P15428)
T1 construct: purchased R&D System 5660-DH
T1 sequence (P15428 1-266): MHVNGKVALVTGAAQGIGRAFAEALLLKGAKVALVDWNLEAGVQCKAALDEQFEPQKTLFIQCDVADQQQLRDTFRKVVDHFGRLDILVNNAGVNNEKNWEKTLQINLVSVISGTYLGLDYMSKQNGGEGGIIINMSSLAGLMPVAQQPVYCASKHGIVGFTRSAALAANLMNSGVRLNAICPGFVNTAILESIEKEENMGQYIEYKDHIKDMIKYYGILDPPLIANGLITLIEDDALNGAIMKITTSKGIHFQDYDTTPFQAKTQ
Test: Evaluation of 15-PGDH inhibitory activity (fluorescence enzyme assay, NAD+/PGE2)
Assay type: biochemical
Conditions: human 15-PGDH enzyme, fluorescence Vmax
Method: 15-PGDH inhibition activity of Example compounds was measured as follows. 6.7 ng of human 15-PGDH (R&D System# 5660-DH) enzyme (10 µL) was added to a black 96 well plate, 60 µL of buffer (50 mM Tris-HCl, pH 7.5, 0.01% Tween 20) was added, and 10 µL of 200 µM β-Nicotinamide adenine dinucleotide sodium salt (Sigma, Cat# N0632-5G) was added. 10 µL of (10x) compound solution in DMSO was added and reacted for 10 minutes at room temperature.

SMILES: O=C(c1cnn2c(-c3ccccc3)cccc12)N1CCCCC1 [Example 1]
- IC50: ≤ 100 nM

SMILES: O=C(c1cnn2c(-c3cccc(Cl)c3)cccc12)N1CCCCC1 [Example 2, (7-(3-chlorophenyl)pyrazolo[1,5-a]pyridin-3-yl)(piperidin-1-yl)methanone]
- IC50: ≤ 100 nM

SMILES: COc1cccc(-c2cccc3c(C(=O)N4CCCCC4)cnn23)c1 [Example 4, (7-(3-methoxyphenyl)pyrazolo[1,5-a]pyridin-3-yl)(piperidin-1-yl)methanone]
- IC50: ≤ 100 nM

SMILES: O=C(c1cnn2c(-c3cccc([N+](=O)[O-])c3)cccc12)N1CCCCC1 [Example 5, (7-(3-nitrophenyl)pyrazolo[1,5-a]pyridin-3-yl)(piperidin-1-yl)methanone]
- IC50: ≤ 100 nM

SMILES: COC(=O)c1ccc(-c2cccc3c(C(=O)N4CCCCC4)cnn23)cc1 [Example 11, methyl 4-(3-(piperidine-1-carbonyl)pyrazolo[1,5-a]pyridin-7-yl)benzoate]
- IC50: ≤ 100 nM

SMILES: O=C(c1cnn2c(-c3ccc([N+](=O)[O-])cc3)cccc12)N1CCCCC1 [Example 13, (7-(4-nitrophenyl)pyrazolo[1,5-a]pyridin-3-yl)(piperidin-1-yl)methanone]
- IC50: ≤ 100 nM

SMILES: Nc1ccc(-c2cccc3c(C(=O)N4CCCCC4)cnn23)cc1 [Example 14, (7-(4-aminophenyl)pyrazolo[1,5-a]pyridin-3-yl)(piperidin-1-yl)methanone]
- IC50: ≤ 100 nM

SMILES: COc1ccc(-c2cccc3c(C(=O)N4CCCCC4)cnn23)cc1OC [Example 24, (7-(3,4-dimethoxyphenyl)pyrazolo[1,5-a]pyridin-3-yl)(piperidin-1-yl)methanone]
- IC50: ≤ 100 nM

SMILES: Cn1nccc1-c1cccc2c(C(=O)N3CCCCC3)cnn12 [Example 25, (7-(1-methyl-1H-pyrazol-5-yl)pyrazolo[1,5-a]pyridin-3-yl)(piperidin-1-yl)methanone]
- IC50: ≤ 100 nM

SMILES: CC(C)(C)OC(=O)N1CCN(C(=O)c2cccc(-c3cccc4c(C(=O)N5CCCCC5)cnn34)c2)CC1 [Example 35, tert-butyl 4-(3-(3-(piperidine-1-carbonyl)pyrazolo[1,5-a]pyridin-7-yl)benzoyl)piperazine-1-carboxylate]
- IC50: ≤ 100 nM

SMILES: O=C(c1cncc(-c2cccc3c(C(=O)N4CCCCC4)cnn23)c1)N1CC2(CCC2)C1 [Example 43, (7-(5-(2-azaspiro[3.3]heptane-2-carbonyl)pyridin-3-yl)pyrazolo[1,5-a]pyridin-3-yl)(piperidin-1-yl)methanone]
- IC50: ≤ 100 nM

SMILES: O=C(c1cncc(-c2cccc3c(C(=O)N4CCCCC4)cnn23)c1)N1CC(F)(F)C1 [Example 44, (3,3-difluoroazetidin-1-yl)(5-(3-(piperidine-1-carbonyl)pyrazolo[1,5-a]pyridin-7-yl)pyridin-3-yl)methanone]
- IC50: ≤ 100 nM

SMILES: O=C(Nc1cccnc1)c1ccc(-c2cccc3c(C(=O)N4CCCCC4)cnn23)cc1 [Example 71, 4-(3-(piperidine-1-carbonyl)pyrazolo[1,5-a]pyridin-7-yl)-N-(pyridin-3-yl)benzamide]
- IC50: ≤ 100 nM

SMILES: CC(=O)Nc1ccc(-c2cccc3c(C(=O)N4CCCCC4)cnn23)cc1 [Example 97, N-(4-(3-(piperidine-1-carbonyl)pyrazolo[1,5-a]pyridin-7-yl)phenyl)acetamide]
- IC50: ≤ 100 nM

SMILES: O=C(Cc1cccnc1)Nc1ccc(-c2cccc3c(C(=O)N4CCCCC4)cnn23)cn1 [Example 106, N-(5-(3-(piperidine-1-carbonyl)pyrazolo[1,5-a]pyridin-7-yl)pyridin-2-yl)-2-(pyridin-3-yl)acetamide]
- IC50: ≤ 100 nM

SMILES: O=C(c1cnn2c(-c3ccc4c(c3)OCO4)cccc12)N1CCCCC1 [Example 121, (7-(benzo[d][1,3]dioxol-5-yl)pyrazolo[1,5-a]pyridin-3-yl)(piperidin-1-yl)methanone]
- IC50: ≤ 100 nM

SMILES: O=C(c1cnn2c(-c3coc4ccccc34)cccc12)N1CCCCC1 [Example 122, (7-(benzofuran-3-yl)pyrazolo[1,5-a]pyridin-3-yl)(piperidin-1-yl)methanone]
- IC50: ≤ 100 nM

SMILES: O=C(c1cnn2c(-c3cc4ccccc4o3)cccc12)N1CCCCC1 [Example 123, (7-(benzofuran-2-yl)pyrazolo[1,5-a]pyridin-3-yl)(piperidin-1-yl)methanone]
- IC50: ≤ 100 nM

SMILES: O=C(c1cnn2c(-c3ccc4cn[nH]c4c3)cccc12)N1CCCCC1 [Example 125, (7-(1H-indazol-6-yl)pyrazolo[1,5-a]pyridin-3-yl)(piperidin-1-yl)methanone]
- IC50: ≤ 100 nM

SMILES: O=C(c1cnn2c(-c3ccc4[nH]ccc4c3)cccc12)N1CCCCC1 [Example 126, (7-(1H-indol-5-yl)pyrazolo[1,5-a]pyridin-3-yl)(piperidin-1-yl)methanone]
- IC50: ≤ 100 nM

SMILES: O=C(c1cnn2c(-c3cccc4ccccc34)cccc12)N1CCCCC1 [Example 128, (7-(naphthalen-1-yl)pyrazolo[1,5-a]pyridin-3-yl)(piperidin-1-yl)methanone]
- IC50: ≤ 100 nM

SMILES: O=C(c1cnn2c(-c3ccc4ccccc4c3)cccc12)N1CCCCC1 [Example 129, (7-(naphthalen-2-yl)pyrazolo[1,5-a]pyridin-3-yl)(piperidin-1-yl)methanone]
- IC50: ≤ 100 nM

SMILES: Cn1ccc2ccc(-c3cccc4c(C(=O)N5CCCCC5)cnn34)cc2c1=O [Example 135, 2-methyl-7-(3-(piperidine-1-carbonyl)pyrazolo[1,5-a]pyridin-7-yl)isoquinolin-1(2H)-one]
- IC50: ≤ 100 nM

SMILES: CN1CCc2cc(-c3cccc4c(C(=O)N5CCCCC5)cnn34)ccc2C1=O [Example 137, 2-methyl-6-(3-(piperidine-1-carbonyl)pyrazolo[1,5-a]pyridin-7-yl)-3,4-dihydroisoquinolin-1(2H)-one]
- IC50: ≤ 100 nM

SMILES: Cn1ccc2cc(-c3cccc4c(C(=O)N5CCCCC5)cnn34)ccc2c1=O [Example 139, 2-methyl-6-(3-(piperidine-1-carbonyl)pyrazolo[1,5-a]pyridin-7-yl)isoquinolin-1(2H)-one]
- IC50: ≤ 100 nM

SMILES: CN1Cc2cc(-c3cccc4c(C(=O)N5CCCCC5)cnn34)ccc2C1=O [Example 144, 2-methyl-5-(3-(piperidine-1-carbonyl)pyrazolo[1,5-a]pyridin-7-yl)isoindolin-1-one]
- IC50: ≤ 100 nM

SMILES: O=C(c1cnn2c(-c3ccc4[nH]c(=O)ccc4c3)cccc12)N1CCCCC1 [Example 145, 6-(3-(piperidine-1-carbonyl)pyrazolo[1,5-a]pyridin-7-yl)quinolin-2(1H)-one]
- IC50: ≤ 100 nM

SMILES: CC(=O)c1cnn2c(-c3ccc(C#N)cc3)cccc12 [Example 152, 4-(3-acetylpyrazolo[1,5-a]pyridin-7-yl)benzonitrile]
- IC50: 100 to 1000 nM

SMILES: O=C(c1cnn2c(-c3ccccc3)cccc12)C1CCCCC1 [Example 158, cyclohexyl(7-phenylpyrazolo[1,5-a]pyridin-3-yl)methanone]
- IC50: 100 to 1000 nM

SMILES: O=C(c1n[nH]c2c(-c3cccc(Cl)c3)cccc12)N1CCCCC1 [Example 161, (7-(3-chlorophenyl)-1H-indazol-3-yl)(piperidin-1-yl)methanone]
- IC50: > 1000 nM

SMILES: O=C(c1cnc2c(-c3cccc(Cl)c3)cccn12)N1CCCCC1 [Example 162, (8-(3-chlorophenyl)imidazo[1,2-a]pyridin-3-yl)(piperidin-1-yl)methanone]
- IC50: ≤ 100 nM

SMILES: O=C(c1cnc2c(-c3ccc([N+](=O)[O-])cc3)cccn12)N1CCCCC1 [Example 163, (8-(4-nitrophenyl)imidazo[1,2-a]pyridin-3-yl)(piperidin-1-yl)methanone]
- IC50: ≤ 100 nM

SMILES: Nc1ccc(-c2cccn3c(C(=O)N4CCCCC4)cnc23)cc1 [Example 164, (8-(4-aminophenyl)imidazo[1,2-a]pyridin-3-yl)(piperidin-1-yl)methanone]
- IC50: > 1000 nM

SMILES: Cc1cc(-c2cccc(Cl)c2)c2ncc(C(=O)N3CCCCC3)n2c1 [Example 165, (8-(3-chlorophenyl)-6-methylimidazo[1,2-a]pyridin-3-yl)(piperidin-1-yl)methanone]
- IC50: 100 to 1000 nM

SMILES: Cc1cc(-c2ccnc(Cl)c2)c2ncc(C(=O)N3CCCCC3)n2c1 [Example 166, (8-(2-chloropyridin-4-yl)-6-methylimidazo[1,2-a]pyridin-3-yl)(piperidin-1-yl)methanone]
- IC50: 100 to 1000 nM

SMILES: O=C(c1cnc2c(-c3cccc(Cl)c3)cc(F)cn12)N1CCCCC1 [Example 167, (8-(3-chlorophenyl)-6-fluoroimidazo[1,2-a]pyridin-3-yl)(piperidin-1-yl)methanone]
- IC50: ≤ 100 nM

SMILES: COc1ccc(-c2cccc3c(C(=O)N4CCCCC4)nnn23)cc1 [Example 168, (7-(4-methoxyphenyl)-[1,2,3]triazolo[1,5-a]pyridin-3-yl)(piperidin-1-yl)methanone]
- IC50: 100 to 1000 nM

SMILES: O=C(c1c[nH]c2c(-c3cccc(Cl)c3)cccc12)N1CCCCC1 [Example 169, (7-(3-chlorophenyl)-1H-indol-3-yl)(piperidin-1-yl)methanone]
- IC50: ≤ 100 nM

SMILES: O=C(c1cnn2cc(-c3cccc(Cl)c3)ccc12)N1CCCCC1 [Example 170, (6-(3-chlorophenyl)pyrazolo[1,5-a]pyridin-3-yl)(piperidin-1-yl)methanone]
- IC50: ≤ 100 nM

SMILES: COc1ccc(-c2ccc3c(C(=O)N4CCCCC4)cnn3c2)cc1 [Example 171, (6-(4-methoxyphenyl)pyrazolo[1,5-a]pyridin-3-yl)(piperidin-1-yl)methanone]
- IC50: ≤ 100 nM

SMILES: O=C(c1cc2ncc(-c3ccc4c(c3)OCO4)cc2[nH]1)N1CCCCC1 [Example 172, (6-(benzo[d][1,3]dioxol-5-yl)-1Hpyrrolo[3,2-b]pyridin-2-yl)(piperidin-1-yl)methanone]
- IC50: > 1000 nM
